Laboratory results taken from patent publication US20040224876A1, “Combination therapy for the treatment of immunoinflammatory disorders” (priority 2003, published 2004).
Where “and” joins values, the source holds several entries; their conditions need not be identical. Identical values can stand only once. Like-named read-outs stand apart in the source and are kept apart here.

Columns and labels:
[1] = test system: TNFα secretion, human white blood cells; details: cyclosporine 0 μM
Protocol: Drugs were added to the indicated concentration. […] The plate was then washed again with 0.1% Tween 20/PBS. An HRP-luminescent substrate was added to each well, and the light intensity of each well was measured using a plate luminometer.
(§1) The percent inhibition (% I) for each well was calculated using the following formula:
(§2) The average untreated well value (avg. untreated wells) is the arithmetic mean of 40 wells from the same assay plate treated with vehicle alone.

[2] = cited from earlier work
[3] = test system: IL-2 secretion, human white blood cells; test: IL-2 secretion by PMA/ionomycin-stimulated human white blood cells (ELISA)
Protocol: (§3) Various concentrations of each test compound were added at the time of stimulation. […] After the plate was washed with 0.1% Tween 20/PBS, an HRP-luminescent substrate was added to each well and light intensity measured using a LJL Analyst plate luminometer.
as §1, §2

[4] = test system: TNFα secretion, human white blood cells; test: TNFα secretion, lipopolysaccharide stimulation, human white blood cells (ELISA)
Protocol: as §3, §1, §2

[5] = read-out: % Inhibition of TNFα secretion, cyclosporine A 0 μM, chlorpromazine […]
[6] = read-out: % Inhibition of TNFα secretion, cyclosporine A 0.00 μM, ethopropazine […]
[7] = read-out: % Inhibition of IL-2 secretion, cyclosporine A 0.00 μM, ethopropazine […]
[8] = read-out: % Inhibition of IL-2 secretion

With `CCOC(=O)N1CCC(=C2c3ccc(Cl)cc3CCc3cccnc32)CC1` [Loratadine] the “Reduction of TNFα secretion” value ([1]; loratadine 0.2 μM) was 0, the “Reduction of TNFα secretion” value ([1]; loratadine 13 μM) was 30.1 and the “Reduction of TNFα secretion” value ([1]; loratadine 26 μM) was 40.7.
In the case of `CO[C@H]1C[C@@H]2CC[C@@H](C)[C@@](O)(O2)C(=O)C(=O)N2CCCC[C@H]2C(=O)O[C@H]([C@H](C)C[C@@H]2CC[C@@H](O)[C@H](OC)C2)CC(=O)[C@H](C)/C=C(\C)[C@@H](O)[C@@H](OC)C(=O)[C@H](C)C[C@H](C)/C=C/C=C/C=C/1C` [Rapamycin], the “absorption after oral administration” value [2] is given as “absorbed rapidly and completely”.
In the case of `C=CC[C@@H]1/C=C(\C)C[C@H](C)C[C@H](OC)[C@H]2O[C@@](O)(C(=O)C(=O)N3CCCC[C@H]3C(=O)O[C@H](/C(C)=C/[C@@H]3CC[C@@H](O)[C@H](OC)C3)[C@H](C)[C@@H](O)CC1=O)[C@H](C)C[C@@H]2OC` [Tacrolimus], the inhibition at 0.0004 µM ([3]; PBMC, read-out: % Inhibition IL-2 PBMC PI, tacrolimus 0.0004 μM, fluvoxamine μM: 0,0.16,0.31,0.62,1.2,2.5,5,10,20) is reported as 0.73%, the inhibition at 0.0008 µM ([3]; PBMC, read-out: % Inhibition IL-2 PBMC PI, tacrolimus 0.0008 μM, fluvoxamine μM: 0,0.16,0.31,0.62,1.2,2.5,5,10,20) is reported as -4.4% and the inhibition at 0.05 µM ([3]; PBMC, read-out: % Inhibition IL-2 PBMC PI, tacrolimus 0.05 μM, fluvoxamine μM: 0,0.16,0.31,0.62,1.2,2.5,5,10,20) is reported as 87%. The inhibition at 0.05 µM ([3]; read-out: maximal inhibition of IL-2 production, tacrolimus 0.05 μM alone) was 87%.
With `CN(C)CCCN1c2ccccc2Sc2ccc(Cl)cc21` [Chlorpromazine] the inhibition at 17 µM [4, 5] was 46.2%, the inhibition at 35 µM [4, 5] was 45.5% and the inhibition at 0.6 µM ([3]; read-out: % Inhibition of IL-2 secretion, cyclosporine A 0 μM, chlorpromazine 0.6 μM) was -13.3%. The inhibition at 5 µM ([3]; read-out: % Inhibition of IL-2 secretion, cyclosporine A 0 μM, chlorpromazine 5.0 μM) was -13.7%, the inhibition at 20 µM ([3]; read-out: % Inhibition of IL-2 secretion, cyclosporine A 0 μM, chlorpromazine 20.0 μM) was 24.7% and the inhibition at 40 µM ([3]; read-out: % Inhibition of IL-2 secretion, cyclosporine A 0 μM, chlorpromazine 40.0 μM) was 80.7%. For the same compound, the inhibition at 80 µM ([3]; read-out: % Inhibition of IL-2 secretion, cyclosporine A 0 μM, chlorpromazine 80.0 μM) was 94.7%.
Compound `CCN(CC)C(C)CN1c2ccccc2Sc2ccccc21` (centres unmarked) [Ethopropazine] has an inhibition at 17 µM [4, 6] of 24.3%, an inhibition at 35 µM [4, 6] of 69.6% and an inhibition at 17 µM [3, 7] of 21%. It also gave an inhibition at 35 µM [3, 7] of 52.3%.
Work on `CN(C)C(=O)C(CCN1CCC(O)(c2ccc(Cl)cc2)CC1)(c1ccccc1)c1ccccc1` [Loperamide] yielded an inhibition at 35 µM ([4]; read-out: % Inhibition of TNFα secretion) of 87.3%, an inhibition at 17 µM [3, 8] of 4.2% and an inhibition at 35 µM [3, 8] of 42.4%. For the same compound, the inhibition at […] [3, 8] was -14.9% and -15.5% and -10.5% and -15.4% (2×) and -13.5%.
